Measurements published in US9708314B2, “Heterocyclic amide compound” (NISSAN CHEMICAL INDUSTRIES, LTD., priority 2013, dated 2017).

What was measured:
Format in all cases: in vivo
Cyperus difformis = experiment: Test Example 3: herbicidal effect by application to foliage (Wagner pot, water depth 0.1-0.5 cm); conditions: Nineteenth Table; application herbicide amount 320 g/ha
Procedure, shortened: (§1)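 Alluvial soil in 1/10000 are Wagner pots, sown and grown 14 days in a 25–30 °C greenhouse. An emulsifiable concentrate diluted in water to the set dose (g/ha) was sprayed on stems and leaves. Effect scored three weeks later on a 0–5 scale: 5 = ≥90% herbicidal ratio, 0 = ≤5%.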

[1] = tested on: Echinochloa crus-galli var. crus-galli; experiment: as above; conditions: Nineteenth Table; application herbicide amount 320 g/ha
Procedure, shortened: as §1

Leptochloa chinensis = experiment: as above; conditions: Nineteenth Table; application herbicide amount 320 g/ha
Procedure, shortened: as §1

[2] = tested on: directly sowed Oryza sativa; experiment: Test Example 3: effect on crop by application to foliage (Wagner pot, water depth 0.1-0.5 cm); conditions: Nineteenth Table; application herbicide amount 320 g/ha
Procedure, shortened: as §1

Abutilon theophrasti = experiment: Test Example 4: herbicidal effect by application to foliage (diluvial soil, plastic box); conditions: application to foliage, application herbicide amount 320 g/ha
Procedure, shortened: (§2)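 Scores run from 0 (herbicidal ratio ≤5%) to 5 (≥90%, almost fully withered) and were assessed three weeks after foliar spraying. Seedlings had been raised for 14 days at 25-30° C in sterilized diluvial soil before treatment, with the emulsion diluted in water to the stated g/ha dose.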

Alopecurus myosuroides = experiment: as above; conditions: application to foliage, application herbicide amount 320 g/ha
Procedure, shortened: as §2

Amaranthus retroflexus = experiment: as above; conditions: application to foliage, application herbicide amount 320 g/ha
Procedure, shortened: as §2

Apera spica-venti. = experiment: as above; conditions: application to foliage, application herbicide amount 320 g/ha
Procedure, shortened: as §2

Avena fatua = experiment: as above; conditions: application to foliage, application herbicide amount 320 g/ha
Procedure, shortened: as §2

Chenopodium album = experiment: as above; conditions: application to foliage, application herbicide amount 320 g/ha
Procedure, shortened: as §2

Digitaria ciliaris = experiment: as above; conditions: application to foliage, application herbicide amount 320 g/ha
Procedure, shortened: as §2

[3] = tested on: Echinochloa crus-galli var. crus-galli; experiment: as above; conditions: application to foliage, application herbicide amount 320 g/ha
Procedure, shortened: as §2

Galium spurium = experiment: as above; conditions: application to foliage, application herbicide amount 320 g/ha
Procedure, shortened: as §2

Lolium multiflorum Lam. = experiment: as above; conditions: application to foliage, application herbicide amount 320 g/ha
Procedure, shortened: as §2

Setaria viridis = experiment: as above; conditions: application to foliage, application herbicide amount 320 g/ha
Procedure, shortened: as §2

Stellaria media = experiment: as above; conditions: application to foliage, application herbicide amount 320 g/ha
Procedure, shortened: as §2

Veronica persica = experiment: as above; conditions: application to foliage, application herbicide amount 320 g/ha
Procedure, shortened: as §2

[4] = tested on: Beta vulgaris ssp. vulgaris; experiment: Test Example 4: effect on crop by application to foliage (diluvial soil, plastic box); conditions: application to foliage, application herbicide amount 320 g/ha
Procedure, shortened: as §2

Brassica campestris L. = experiment: as above; conditions: application to foliage, application herbicide amount 320 g/ha
Procedure, shortened: as §2

Glycine max = experiment: as above; conditions: application to foliage, application herbicide amount 320 g/ha
Procedure, shortened: as §2

Triticum aestivum = experiment: as above; conditions: application to foliage, application herbicide amount 320 g/ha
Procedure, shortened: as §2

Zea mays = experiment: as above; conditions: application to foliage, application herbicide amount 320 g/ha
Procedure, shortened: as §2

[5] = tested on: directly sowed Oryza sativa; experiment: as above; conditions: application to foliage, application herbicide amount 320 g/ha
Procedure, shortened: as §2

**Q.** How did the “E (Cyperus difformis) herbicidal ratio grade” value (Cyperus difformis) turn out when Cc1nnc(NC(=O)c2ccc(C(F)(F)F)n3c(CS(=O)(=O)CC(F)(F)F)nnc23)o1 [1-039] was run?
**A.** The value was 3 (Herbicidal ratio of 40% or more and less than 70%).

**Q.** What about the “H (Echinochloa crus-galli var. crus-galli) herbicidal ratio grade” value [1] of the same compound?
**A.** Its value is 3 (Herbicidal ratio of 40% or more and less than 70%).

**Q.** And the “D (Leptochloa chinensis) herbicidal ratio grade” value (Leptochloa chinensis)?
**A.** The value was 3 (Herbicidal ratio of 40% or more and less than 70%).

**Q.** What about the “b (directly sowed Oryza sativa) effect on crop grade” value [2] of the same compound?
**A.** The value was 2 (Herbicidal ratio of 20% or more and less than 40%).

**Q.** What about the “M (Abutilon theophrasti) herbicidal effect” value (Abutilon theophrasti) of the same compound?
**A.** Its value is 0 (Herbicidal ratio of 5% or less (almost no effect)).

**Q.** What about the “J (Alopecurus myosuroides) herbicidal effect” value (Alopecurus myosuroides) of the same compound?
**A.** The value was 0 (Herbicidal ratio of 5% or less (almost no effect)).

**Q.** And the “N (Amaranthus retroflexus) herbicidal effect” value (Amaranthus retroflexus)?
**A.** Its value is 1 (Herbicidal ratio of 5% or more and less than 20%).

**Q.** What about the “L (Apera spica-venti.) herbicidal effect” value (Apera spica-venti.) of the same compound?
**A.** Its value is 0 (Herbicidal ratio of 5% or less (almost no effect)).

**Q.** What about the “I (Avena fatua) herbicidal effect” value (Avena fatua) of the same compound?
**A.** Its value is 0 (Herbicidal ratio of 5% or less (almost no effect)).

**Q.** And the “O (Chenopodium album) herbicidal effect” value (Chenopodium album)?
**A.** Its value is 4 (Herbicidal ratio of 70% or more and less than 90%).

**Q.** What about the “F (Digitaria ciliaris) herbicidal effect” value (Digitaria ciliaris) of the same compound?
**A.** Its value is 2 (Herbicidal ratio of 20% or more and less than 40%).

**Q.** And the “H (Echinochloa crus-galli var. crus-galli) herbicidal effect” value [3]?
**A.** Its value is 4 (Herbicidal ratio of 70% or more and less than 90%).

**Q.** And the “Q (Galium spurium) herbicidal effect” value (Galium spurium)?
**A.** The value was 0 (Herbicidal ratio of 5% or less (almost no effect)).

**Q.** What about the “K (Lolium multiflorum Lam.) herbicidal effect” value (Lolium multiflorum Lam.) of the same compound?
**A.** Its value is 0 (Herbicidal ratio of 5% or less (almost no effect)).

**Q.** What about the “G (Setaria viridis) herbicidal effect” value (Setaria viridis) of the same compound?
**A.** Its value is 0 (Herbicidal ratio of 5% or less (almost no effect)).

**Q.** What about the “P (Stellaria media) herbicidal effect” value (Stellaria media) of the same compound?
**A.** Its value is 0 (Herbicidal ratio of 5% or less (almost no effect)).

**Q.** What about the “R (Veronica persica) herbicidal effect” value (Veronica persica) of the same compound?
**A.** Its value is 0 (Herbicidal ratio of 5% or less (almost no effect)).

**Q.** And the “f (Beta vulgaris ssp. vulgaris) effect on crop” value [4]?
**A.** Its value is 2 (Herbicidal ratio of 20% or more and less than 40%).

**Q.** What about the “g (Brassica campestris L.) effect on crop” value (Brassica campestris L.) of the same compound?
**A.** The value was 0 (Herbicidal ratio of 5% or less (almost no effect)).

**Q.** What about the “c (Glycine max) effect on crop” value (Glycine max) of the same compound?
**A.** Its value is 0 (Herbicidal ratio of 5% or less (almost no effect)).

**Q.** What about the “e (Triticum aestivum) effect on crop” value (Triticum aestivum) of the same compound?
**A.** The value was 0 (Herbicidal ratio of 5% or less (almost no effect)).

**Q.** And the “b (Zea mays) effect on crop” value (Zea mays)?
**A.** The value was 0 (Herbicidal ratio of 5% or less (almost no effect)).

**Q.** What about the “d (directly sowed Oryza sativa) effect on crop” value [5] of the same compound?
**A.** The value was 0 (Herbicidal ratio of 5% or less (almost no effect)).

**Q.** Which results are given for Cc1nnc(NC(=O)c2ccc(C(F)(F)F)n3c(-c4ccc(C(F)(F)F)cc4)nnc23)o1 [1-045]?
**A.** E (Cyperus difformis) herbicidal ratio grade (Cyperus difformis): 4 (Herbicidal ratio of 70% or more and less than 90%); H (Echinochloa crus-galli var. crus-galli) herbicidal ratio grade [1]: 1 (Herbicidal ratio of 5% or more and less than 20%); D (Leptochloa chinensis) herbicidal ratio grade (Leptochloa chinensis): 3 (Herbicidal ratio of 40% or more and less than 70%); b (directly sowed Oryza sativa) effect on crop grade [2]: 0 (Herbicidal ratio of 5% or less (almost no effect)); M (Abutilon theophrasti) herbicidal effect (Abutilon theophrasti): 4 (Herbicidal ratio of 70% or more and less than 90%); J (Alopecurus myosuroides) herbicidal effect (Alopecurus myosuroides): 0 (Herbicidal ratio of 5% or less (almost no effect)); N (Amaranthus retroflexus) herbicidal effect (Amaranthus retroflexus): 4 (Herbicidal ratio of 70% or more and less than 90%); L (Apera spica-venti.) herbicidal effect (Apera spica-venti.): 0 (Herbicidal ratio of 5% or less (almost no effect)); I (Avena fatua) herbicidal effect (Avena fatua): 0 (Herbicidal ratio of 5% or less (almost no effect)); O (Chenopodium album) herbicidal effect (Chenopodium album): 5 (Herbicidal ratio of 90% or more (almost completely withered)); F (Digitaria ciliaris) herbicidal effect (Digitaria ciliaris): 3 (Herbicidal ratio of 40% or more and less than 70%); H (Echinochloa crus-galli var. crus-galli) herbicidal effect [3]: 2 (Herbicidal ratio of 20% or more and less than 40%); Q (Galium spurium) herbicidal effect (Galium spurium): 2 (Herbicidal ratio of 20% or more and less than 40%); K (Lolium multiflorum Lam.) herbicidal effect (Lolium multiflorum Lam.): 0 (Herbicidal ratio of 5% or less (almost no effect)); G (Setaria viridis) herbicidal effect (Setaria viridis): 1 (Herbicidal ratio of 5% or more and less than 20%); P (Stellaria media) herbicidal effect (Stellaria media): 2 (Herbicidal ratio of 20% or more and less than 40%); R (Veronica persica) herbicidal effect (Veronica persica): 3 (Herbicidal ratio of 40% or more and less than 70%); f (Beta vulgaris ssp. vulgaris) effect on crop [4]: 3 (Herbicidal ratio of 40% or more and less than 70%); g (Brassica campestris L.) effect on crop (Brassica campestris L.): 3 (Herbicidal ratio of 40% or more and less than 70%); c (Glycine max) effect on crop (Glycine max): 0 (Herbicidal ratio of 5% or less (almost no effect)); e (Triticum aestivum) effect on crop (Triticum aestivum): 0 (Herbicidal ratio of 5% or less (almost no effect)); b (Zea mays) effect on crop (Zea mays): 0 (Herbicidal ratio of 5% or less (almost no effect)); d (directly sowed Oryza sativa) effect on crop [5]: 1 (Herbicidal ratio of 5% or more and less than 20%)
